In brackets after ≈: the same amount, converted by molar mass. Counter-ions that a name gives are not always drawn. Like-named read-outs stand apart in the source and are kept apart here.
How the values were obtained:
MRSA = experiment: MIC, 96-well CAMHB, 10^5 to 10^2 CFU/mL in 24 hours; assay type: cell-based, Staphylococcus aureus; conditions: for MIC: Staphylococcus aureus, MRSA, read-out: MIC (MRSA)
Protocol: (§1) To determine the MIC of polyamine compounds, the protocol described herein was used.
In brief, a 0.5 McFarland of each bacterial isolate was made. A 0.5 McFarland is a measure of turbidity in a liquid sample that contains approximately 1×10^∧8 CFU/mL. The 0.5 McFarland standard was diluted in cation adjusted Mueller Hinton Broth (CAMHB), and 50 μL of broth were added to a well of a 96-well plate. In addition, 50 μL of CAMHB that contained a desired concentration of antimicrobial were also added to the well for a final volume of 100 μL and a final concentration of approximately 5×10^4 CFU/well (which equated to approximately 5×10^5 CFU/mL). Each well contained a desired amount of polyamine compound in order to experimentally determine the MIC. Each 96-well plate was incubated at 37° C. for 24 hours. The contents of each well were plated on tryptic soy agar (TSA). TSA plates were incubated for 37° C. for 24 hours after which the number of CFU were counted and used to calculate the CFU/mL that remained after exposure to varying concentrations of compound. This procedure was repeated n=8 times for each concentration of antimicrobial. […]

L-929 cells (ATCC CCL-1) = experiment: Minimal Essential Media (MEM) Elution cytotoxicity test; assay type: cell-based; conditions: Table 11A
Protocol: Summary: The Minimal Essential Media (MEM) Elution test was designed to determine the cytotoxicity of extractable substances. The test article was added to cell monolayers and incubated. The cell monolayers were examined and scored based on the degree of cellular destruction.
Acceptance Criteria: The United States Pharmacopeia & National Formulary (USP <87>) states that the test article meets the requirements, or receives a passing score (Pass) if the reactivity grade is not greater than grade 2 or a mild reactivity.
Acceptance criteria were based upon the negative and media controls receiving “0” reactivity grades and positive controls receiving a 3-4 reactivity grades (moderate to severe).
The cell monolayers were examined microscopically. The wells were scored as to the degree of discernable morphological cytotoxicity on a relative scale of 0 to 4:
The results from the three wells were averaged to give a final cytotoxicity score.
[…] This initial concentration was then diluted 1: 2, 1:4, 1:8, and 1:16. Multiple well cell culture plates were seeded with a verified quantity of industry standard L-929 cells (ATCC CCL-1) and incubated until approximately 80% confluent. The test articles and control extracts were added to the cell monolayers in triplicate. The cells were incubated at 37±1° C. with 5±1% CO2 for 48±3 hours.

P. aeruginosa = experiment: MIC, 96-well CAMHB, 10^5 to 10^2 CFU/mL in 24 hours; assay type: cell-based, Pseudomonas aeruginosa; conditions: for MIC: Pseudomonas aeruginosa
Protocol: as §1
In brief, a 0.5 McFarland of each bacterial isolate was made. A 0.5 McFarland is a measure of turbidity in a liquid sample that contains approximately 1×10^∧8 CFU/mL. The 0.5 McFarland standard was diluted in cation adjusted Mueller Hinton Broth (CAMHB), and 50 μL of broth were added to a well of a 96-well plate. In addition, 50 μL of CAMHB that contained a desired concentration of antimicrobial were also added to the well for a final volume of 100 μL and a final concentration of approximately 5×10^4 CFU/well (which equated to approximately 5×10^5 CFU/mL). Each well contained a desired amount of polyamine compound in order to experimentally determine the MIC. Each 96-well plate was incubated at 37° C. for 24 hours. The contents of each well were plated on tryptic soy agar (TSA). TSA plates were incubated for 37° C. for 24 hours after which the number of CFU were counted and used to calculate the CFU/mL that remained after exposure to varying concentrations of compound. This procedure was repeated n=8 times for each concentration of antimicrobial.

[1] = Table 5, read-out: MIC (P. aeruginosa)
[2] = read-out: MIC (P. aeruginosa), Table 5

Compound | MIC (MRSA; Table 5) | MIC (P. aeruginosa; [1]) | other results
CCCCCCCCNCCCNCCCNCc1cc(CNCCCNCCCNCCCCCCCC)cc(-c2ccccc2)c1 [CZ-92, N^1,N^1′-([1,1′-biphenyl]-3,5-diylbis(methylene))bis(N^3-(3-(octylamino)propyl)-propane-1,3-diamine)] | < 50 µM | < 50 µM | Results Pass/Fail (L-929 cells (ATCC CCL-1); 25 μg/mL): Fail (a numerical grade greater than 2 is considered a cytotoxic effect, or a failing score (Fail)); Results Pass/Fail (L-929 cells (ATCC CCL-1); dilution 1:2 of 25 μg/mL): Fail (a numerical grade greater than 2 is considered a cytotoxic effect, or a failing score (Fail)); Results Pass/Fail (L-929 cells (ATCC CCL-1); dilution 1:4 of 25 μg/mL): Fail (a numerical grade greater than 2 is considered a cytotoxic effect, or a failing score (Fail)); Results Pass/Fail (L-929 cells (ATCC CCL-1); dilution 1:8 of 25 μg/mL): Fail (a numerical grade greater than 2 is considered a cytotoxic effect, or a failing score (Fail)); Results Pass/Fail (L-929 cells (ATCC CCL-1); dilution 1:16 of 25 μg/mL): Pass (receives a passing score (Pass) if the reactivity grade is not greater than grade 2 or a mild reactivity)
c1ccc(-c2cc(CNCCCNCCCNCC3CCCCC3)cc(CNCCCNCCCNCC3CCCCC3)c2)cc1 [CZ-96, N^1,N^1′-([1,1′-biphenyl]-3,5-diylbis(methylene))bis(N^3-(3-((cyclohexylmethyl)amino)propyl)propane-1,3-diamine)] | < 50 µM | < 50 µM | Results Pass/Fail (L-929 cells (ATCC CCL-1); 25 μg/mL): Pass (receives a passing score (Pass) if the reactivity grade is not greater than grade 2 or a mild reactivity); Results Pass/Fail (L-929 cells (ATCC CCL-1); dilution 1:2 of 25 μg/mL): Pass (receives a passing score (Pass) if the reactivity grade is not greater than grade 2 or a mild reactivity); Results Pass/Fail (L-929 cells (ATCC CCL-1); dilution 1:4 of 25 μg/mL): Pass (receives a passing score (Pass) if the reactivity grade is not greater than grade 2 or a mild reactivity); Results Pass/Fail (L-929 cells (ATCC CCL-1); dilution 1:8 of 25 μg/mL): Pass (receives a passing score (Pass) if the reactivity grade is not greater than grade 2 or a mild reactivity); Results Pass/Fail (L-929 cells (ATCC CCL-1); dilution 1:16 of 25 μg/mL): Pass (receives a passing score (Pass) if the reactivity grade is not greater than grade 2 or a mild reactivity)
CC(C)(C)OC(=O)NCCCNCCCNCc1cc(CNCCCNCCCN)cc(CNCCCNCCCN)c1 [CZ-51, tert-butyl (3-((3-((3,5-bis(((3-((3-aminopropyl)amino)propyl)amino)methyl)-benzyl)amino)propyl)amino)propyl)carbamate] | < 50 µM | < 50 µM | 
CCCCCCNCCCNCCCCNCc1cc(CNCCCCNCCCNCCCCCC)cc(-c2ccccc2)c1 [CZ-118, N^1,N^1′-([1,1′-biphenyl]-3,5-diylbis(methylene))bis(N^4-(3-(hexylamino)propyl)butane-1,4-diamine)] | < 50 µM | < 50 µM | 
NCCCNCCCNCc1cc(CNCCCNCCCN)cc(OCC2CCCCC2)c1 [CZ-101, N^1,N^1′-((5-(cyclohexylmethoxy)-1,3-phenylene)bis(methylene))bis(N^3-(3-aminopropyl)propane-1,3-diamine), hydrochloride salt] |  |  | MIC (MRSA): < 50 µM; MIC (P. aeruginosa; [2]): < 50 µM
tri-tert-butyl-(((((benzene-1,3,5-triyltris(methylene))tris(azanediyl))tris-(propane-3,1-diyl))tris(azanediyl))tris(propane-3,1-diyl))tricarbamate, hydrochloride salt [CZ-54] |  |  | MIC (MRSA) (MRSA; Table 5): +++ (+++ = 50 μM > MIC. MIC results of “>n μM” or “<n μM” will also be designated as +++ if n <50.); MIC (P. aeruginosa) (P. aeruginosa; Table 5): +++ (+++ = 50 μM > MIC. MIC results of “>n μM” or “<n μM” will also be designated as +++ if n <50.)
NCCCNCCCNCc1cccc(CNCCCNCCCN)c1 [CZ-42] |  | 50 to 100 µM (≈ 18.2 to 36.5 µg/mL) | MIC (MRSA) (MRSA; Table 5): ++ (++ = 100 μM ≥ MIC ≥ 50 μM. MIC results of “>n μM” or “<n μM” will also be designated as ++ if 100 ≥ n ≥ 50.)
NCCCNCCCNCc1cc(O)cc(CNCCCNCCCN)c1 [CZ-87, 3,5-bis(((3-((3-aminopropyl)amino)propyl)amino)methyl)phenol] | < 50 µM | < 50 µM | 
NCCCNCCCNCc1cc(CNCCCNCCCN)cc(-c2ccc(C(=O)N3CCCCC3)cc2)c1 [CZ-88, (3′,5′-Bis(((3-((3-aminopropyl)amino)propyl)amino)methyl)-[1,1′-biphenyl]-4-yl) (piperidin-1-yl)methanone] | < 50 µM | < 50 µM | 
CC(C)CNCCCNCCCNCc1cccc(CNCCCNCCCNCC(C)C)c1 [CZ-108, N^1,N^1′-(1,3-phenylenebis(methylene))bis(N^3-(3-(isobutylamino)propyl)propane-1,3-diamine)] | < 50 µM | < 50 µM | 
CCCCCCNCCCNCCCNCc1cc(CNCCCNCCCNCCCCCC)cc(-c2ccccc2)c1 [CZ-114, N^1,N^1′-([1,1′-biphenyl]-3,5-diylbis(methylene))bis(N^3-(3-(hexylamino)propyl)propane-1,3-diamine)] | < 50 µM | < 50 µM | 
CC(C)CNCCCCCCCCCCCCNCc1cc(CNCCCCCCCCCCCCNCC(C)C)cc(-c2ccccc2)c1 [CZ-116, N^1,N^1′-([1,1′-biphenyl]-3,5-diylbis(methylene))bis(N^12-isobutyldodecane-1,12-diamine)] | < 50 µM | < 50 µM | 
NCCCNCCCNCc1cc(CNCCCNCCCN)cc(-c2ccc(F)cc2)c1 [CZ-75, N^1,N^1′-((4′-fluoro-[1,1′-biphenyl]-3,5-diyl)bis(methylene))bis(N3-(3-aminopropyl)propane-1,3-diamine), hydrochloride salt] |  |  | MIC (MRSA): < 50 µM; MIC (P. aeruginosa; [2]): < 50 µM
c1ccc(CNCCCNCCCNCc2cc(CNCCCNCCCNCc3ccccc3)cc(-c3ccccc3)c2)cc1 [CZ-94, N^1,N^1′-([1,1′-biphenyl]-3,5-diylbis(methylene))bis(N^3-(3-(benzylamino)propyl)propane-1,3-diamine)] | < 50 µM | < 50 µM | 
CC(C)CNCCCCCCCCCCCCNCc1cccc(-c2cc(CNCCCCCCCCCCCCNCC(C)C)cc(CNCCCCCCCCCCCCNCC(C)C)c2)c1 [CZ-117, N^1,N^1′,N^1″-([1,1′-biphenyl]-3,3′,5-triyltris(methylene))tris(N^12-isobutyldodecane-1,12-diamine)] | < 50 µM | < 50 µM | 
CC(C)CNCCCNCCCNCc1cc(CNCCCNCCCNCC(C)C)cc(OCc2ccccc2)c1 [CZ-106, N^1,N^1′-((5-(benzyloxy)-1,3-phenylene)bis(methylene))bis(N^3-(3-(isobutylamino)propyl)propane-1,3-diamine)] | < 50 µM | 50 to 100 µM (≈ 29.1 to 58.3 µg/mL) | 
CCCCCCNCCCNCCCCNCc1cccc(CNCCCCNCCCNCCCCCC)c1 [CZ-119, N^1,N^1′-(1,3-phenylenebis(methylene))bis(N^4-(3-(hexylamino)propyl)butane-1,4-diamine)] | < 50 µM | < 50 µM | 
CC(C)CNCCCOc1cc(CNCCCNCCCN)cc(CNCCCNCCCN)c1 [CZ-107, N^1,N^1′-((5-(3-(isoButylammonio)propoxy)-1,3-phenylene)bis(methylene))-bis(N^3-(3-ammoniopropyl)propane-1,3-diaminium) chloride] |  |  | MIC (MRSA): < 50 µM; MIC (P. aeruginosa; [2]): 50 to 100 µM
NCCCNCc1cc(CNCCCN)cc(-c2ccccc2)c1 [CZ-77, N^1,N^1′-([1,1′-biphenyl]-3,5-diylbis(methylene))bis(propane-1,3-diamine), hydrochloride salt] |  |  | MIC (MRSA): < 50 µM; MIC (P. aeruginosa; [2]): < 50 µM

Reference: patent publication US10440955B2, “Methods comprising a biocidal polyamine” (Curza Global, LLC, priority 2013, dated 2019)
